{
  "source": "patent US20110064661A1",
  "about": "“NON-RADIOACTIVE PHOSPHOLIPID COMPOUNDS, COMPOSITIONS, AND METHODS OF USE” (priority 2009, published 2011)",
  "key": {"A549 cells [1]": {"test_system": "A549 cells", "test": "Uptake and Retention Assay of 125I-CLR1404", "type": "cell-based, human", "conditions": "24 hours, 0.588-2.156 μM, serum free media", "description": "The Uptake and Retention Assay was preformed as described previously. Briefly, A549 human NSCLC cells were plated at a density of 150,000 cells/ml in 6-well plates.\nCells were then allowed to adhere overnight. All plates were then treated with the indicated mass of either ^125I-CLR1404 with or without ^127I-CLR1401 as indicated by the experimental parameters.\nCells were incubated in the presence of drug for 24 hrs prior to collection. At 24 hrs post treatment, the media was removed and the cells were washed once with 1 ml of ice cold 1×PBS+1% BSA. The cells were then removed from the plate by trypsinization with 1 ml of 1× Trypsin 1×PBS solution and split into 2 samples of 500 μl each. Both sets of sample were pelleted by centrifugation for 30 seconds at 2000×g at room temperature. The supernatant was removed and discarded.\nOne pellet for each sample set was resuspended in 200 μl of 1×PBS (Tube 1, Sample 1), and the other pellet was resuspened in 100% EtOH (Tube 2, Sample 1). A 100 μl sample from Tube 1 was taken for evaluation of DNA content in order to determine cell number (data was generated using absorbance at 260 nm in a microplate reader). A 10 μl sample from Tube 2 was taken for evaluation of radioactivity content using a gamma counter. […] All treatments were preformed in Serum Free media. […]"}, "active Akt (pAkt, S473) [2]": {"test_system": "active Akt (pAkt, S473)", "test": "Inhibition of Akt activation (pAkt Ser473 sandwich ELISA) in PC-3 cells", "type": "cell-based", "conditions": "Homo sapiens", "description": "PC-3 cells, obtained from American Type Culture Collection (ATCC), are a human prostate carcinoma cell line. PC-3 cells have a homozygous deletion of PTEN.\n(§1) A549 and PC-3 cells were plated at a density of 200,000 cells per ml.\n(§2) All treatments were preformed in triplicate.\n(§3) A549 and PC-3 cells are treated with ^127I-CLR1401 for 24 hours. • 0, 3, 5, 10 μM of ^127I-CLR1401 • Protein was isolated from treated cells. • The level of activated Akt was determined by examining the phosphorylated (active) form at Ser473 by enzyme linked immunosorbent assay (ELISA). • PathScan Phospho-Akt1 (Ser473) Sandwich ELISA Kit (Cell Signaling #7160). • ELISA controls: • Negative Control: A549 and PC-3 cells treated with 50 μM LY294,002 for 24 hrs. LY294,002 is a specific cell permeable phosphatidylinositol 3-kinase (PI3K) inhibitor that inhibits the activation of Akt by affecting the amount of phosphatidylinositol(3,4,5) trisphosphate produced by PI3K. • Positive Control: A549 and PC-3 cells stimulated with 10 μg/ml Insulin for 24 hrs. • Negative Control: A549 in serum free media. • 1) The ELISA was preformed per the manufacturer's instructions. Briefly, 100 μg of protein from the cell lysates were incubated in the pre-coated 96-well plate overnight at 4° C. The wells were then washed 4 times with 1XWash Buffer (also provided). Then incubated with the primary Akt antibody for 2 hours at 37° C. with 5% CO2 in air. After the primary incubation the plate was then washed 4 times with 1XWash Buffer and incubated with the HRP-linked secondary antibody for 1 hour at 37° C. with 5% CO2 in air. The plate was then washed 4 times with 1× Wash Buffer and developed using the TMB substrate provided. TMB substrate (tetramethylbenzidine) is a colormetric substrate used in the ELISA assay. TMB (3,3″,5,5″-tetramethylbenzidine) is a chromogen that yields a blue color when oxidized with hydrogen peroxide (catalyzed by HRP) with major absorbances at 370 nm and 652 nm. The color then changes to yellow with the addition of sulfuric or phosphoric acid with maximum absorbance at 450 nm. it is used for the detection of target proteins that have been bound to an antibody that contains a Horseradish Peroxidase tag. • After the 10 minute incubation at 37° C. the reaction was stopped by the addition of stop buffer (also provided). The absorbance was then measured at 450 nm using a Synergy HT microplate reader (BioTek). Data are reported as absorbance at 450 nm."}, "active Akt (pAkt, S473) [3]": {"test_system": "active Akt (pAkt, S473)", "test": "Inhibition of Akt activation (pAkt Ser473 sandwich ELISA) in A549 cells", "type": "cell-based", "conditions": "Homo sapiens", "description": "A549 cells, obtained from American Type Culture Collection (ATCC), are a human non-small cell lung cancer cell line. A549 cells have wild-type functional PTEN.\nas §1, §2, §3"}, "A549 cells [4]": {"test_system": "A549 cells", "test": "Cell growth inhibition by MTT assay", "type": "cell-based, human", "description": "2. Cell Growth Inhibition by ^127I-CLR1401. • 1) Growth inhibition induced by ^127I-CLR1401 was determined by MTT(3-(4,5-dimethylthiazol-2-yl)-2,5-diphenyl […] bromide) assay. MTT is a pale yellow substrate that is cleaved by living cells to yield a dark blue formazan product.\nBriefly, A549 cells were plated at a density of 200,000 cells per well in a six well plate and allowed to adhere overnight.\nThe cells were then treated with varying concentrations of ^127I-CLR1401 (0.0078, 0.392, 0.784, 1.568, 3.137, 4.705, 7.84, 39.2, 78.4 μM) in triplicate and then collected for the MTT assay at the indicated time points. Cells were then incubated with 0.5 mg/ml MTT in 1×PBS for 3 hours at 37° C. with 5% CO2 in air.\nAbsorbance was measured at 540 nm using a Synergy HT microplate reader. The absorbance value at 540 nm is directly proportional to the number of viable cells present."}, "[5]": {"conditions": "3 μM, 24 hours, read-out: Percent Inhibition of Akt"}, "[6]": {"conditions": "5 μM, 24 hours, read-out: Percent Inhibition of Akt"}, "[7]": {"conditions": "10 μM, 24 hours, read-out: Percent Inhibition of Akt"}},
  "data": [
    {"compound": "18-(p-Iodophenyl)octadecyl phosphocholine [^125I-CLR1404]", "values": [
      {"measurement": "uptake and retention of 125I-CLR1404 with increasing mass dose of 125I-CLR1404", "setting": "A549 cells [1]", "result": "distinct increase in the amount of compound taken up and retained"}
    ]},
    {"compound": "C[N+](C)(C)CCOP(=O)([O-])OCCCCCCCCCCCCCCCCCCc1ccc(I)cc1", "note": "[^127I-CLR1401, 18-(p-Iodophenyl)octadecyl phosphocholine]", "values": [
      {"measurement": "IC50", "setting": "active Akt (pAkt, S473) [2]", "result": 5, "unit": "µM"},
      {"measurement": "inhibition at 3 µM", "setting": "active Akt (pAkt, S473) [2]; [5]", "result": 21, "unit": "%"},
      {"measurement": "inhibition at 5 µM", "setting": "active Akt (pAkt, S473) [2]; [6]", "result": 61, "unit": "%"},
      {"measurement": "inhibition at 10 µM", "setting": "active Akt (pAkt, S473) [2]; [7]", "result": 97, "unit": "%"},
      {"measurement": "IC50", "setting": "active Akt (pAkt, S473) [3]", "result": 5.9, "unit": "µM"},
      {"measurement": "inhibition at 3 µM", "setting": "active Akt (pAkt, S473) [3]; [5]", "result": 26, "unit": "%"},
      {"measurement": "inhibition at 5 µM", "setting": "active Akt (pAkt, S473) [3]; [6]", "result": 42, "unit": "%"},
      {"measurement": "inhibition at 10 µM", "setting": "active Akt (pAkt, S473) [3]; [7]", "result": 85, "unit": "%"},
      {"measurement": "IC50", "setting": "A549 cells [4]; Homo sapiens, A549 cells, MTT, read-out: 50% inhibitory concentration for cell growth", "result": 4.5, "unit": "µM"},
      {"measurement": "effect on the growth of A549 cells", "setting": "A549 cells [4]; low doses, FIG. 5A", "result": "no significant effect"}
    ]}
  ]
}
